Usually IC50 stands for the concentration that inhibits the measured activity by half. Lower therefore signals greater potency in that assay.

Assay [1] addresses T1, SHV-1 (Klebsiella pneumoniae, UniProt P0AD64).
T1 construct: made in house
The assay is described as follows: IC50 by nitrocefin hydrolysis after pre-incubation of enzyme and inhibitor. It counts as biochemical. Here is the method: (§1) Measurements were performed using glass cuvettes with 1 mL final volume in 1 mM phosphate-buffered saline (PBS) at pH 7.4 as previously described.

For assay [2], the target named is T2, wt SHV-1 (Klebsiella pneumoniae, UniProt P0AD64).
T2 construct: made in house
T2 sequence (P0AD64 22-286): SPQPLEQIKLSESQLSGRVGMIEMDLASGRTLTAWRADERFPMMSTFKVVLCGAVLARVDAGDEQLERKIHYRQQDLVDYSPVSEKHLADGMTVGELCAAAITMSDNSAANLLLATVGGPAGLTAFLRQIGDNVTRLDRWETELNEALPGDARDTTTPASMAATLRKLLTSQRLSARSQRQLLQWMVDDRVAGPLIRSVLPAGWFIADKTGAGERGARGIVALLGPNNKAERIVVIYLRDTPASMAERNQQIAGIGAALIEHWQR
Briefly: biochemical. It counts as biochemical. Here is the method: as §1

In assay [3] the target is T1, SHV-1. The assay is described as follows: Inactivation kinetics (kinact, KI, kinact/KI) with nitrocefin. It counts as biochemical. Here is the method:
kinact (the first-order rate constant of inactivation) was determined by monitoring the inactivation of the enzyme by increasing concentrations of inhibitor over a time course using 21 nM of enzyme and 100 µM of nitrocefin according to a previously published method. The k obs determined using Origin (OriginLab Corporation) to plot the reciprocal of the ordinate of the intersection of the straight lines obtained from the initial velocity of inhibition, v o, and the final velocity of inhibition, vf. Each k obs was plotted against the inhibitor concentration [I] and fit to equation 2 to calculate k inact and k inact/K I. [drawing 2] (2)

In assay [4] the target is T1, SHV-1. Briefly: Partition ratio (turnover number, tn). It counts as biochemical. Particulars: SHV-1, 24 hour incubation, loss of >90% nitrocefin hydrolysis. Here is the method:
The partition ratio (turnover number, t n = k cat/k inact) or the partitioning of the initial enzyme-inhibitor complex between hydrolysis and enzyme inactivation was measured by incubating fixed enzyme concentrations with increasing amounts of inhibitor over a 24 hour period in a total volume of 100 µL as described. After 24 hours, a 20 µL aliquot of the incubation mix was removed and the steady-state hydrolysis of nitrocefin was measured and compared to an uninhibited control. The t n was determined as the inhibitor proportion that led to a loss of >90% of nitrocefin hydrolysis by the enzyme.

Assay [5] concerns E. coli ATCC 35218 containing TEM-1. Briefly: Antimicrobial disc assay. Particulars: 10 µg ampicillin and 10 µg inhibitor; disc and ampicillin alone 6 mm. Format: cell-based, Escherichia coli. Here is the method: (§2) In brief, paper discs (6 mm diameter) were soaked with 10 µg inhibitor and 10 µg of ampicillin or cephalothin. Discs were placed on Mueller-Hinton (M-H) agar plates plated with 10^4–10^5 CFUs of Escherichia coli DH10B harboring SHV-1 or PDC-3 or E. coli ATCC 35218 containing TEM-1. Measured zone clearing diameters were used to determine susceptibility.
(§3) Supplementary file pone.0085892.s003.docx: Table S1 Antimicrobial disc assays. These assays were performed with 10 µg ampicillin and 10 µg inhibitor. The size of the disc and the ampicillin zone size alone is 6 mm. (DOCX) Click here for additional data file.

Assay [6] concerns E. coli DH10B PDC-3. Briefly: Antimicrobial disc assay. It counts as cell-based, Escherichia coli. Particulars: for Disc Assay Zone E. coli DH10B PDC-3: 10 µg ampicillin and 10 µg inhibitor, disc and ampicillin alone 6 mm. On the procedure:
as §2, §3

The test system of assay [7] is E. coli DH10B SHV-1. The assay is described as follows: Antimicrobial disc assay. It counts as cell-based, Escherichia coli. Particulars: for Disc Assay Zone E. coli DH10B SHV-1: 10 µg ampicillin and 10 µg inhibitor, disc and ampicillin alone 6 mm. Here is the method: as §2, §3
The subject of assay [8] is KPC-2. Set-up: method as in PMID 22330909. Particulars: the defined K i represents the K m used in Ke et al.; cited from earlier work.
Assay [9] addresses T1, SHV-1. The assay is described as follows: Reactivation of β-lactamase (k obs react) after inhibitor/enzyme incubation. It counts as biochemical. Particulars: SHV-1, 90:1 inhibitor:enzyme, 30 min incubation. Here is the method: Then, unbound inhibitor was washed out with a Macro Spin Column G10 (The Nest Group). A competition assay was performed with 100 µM of nitrocefin and a 5 µL aliquot of the incubated mixture at three different time points (5, 30, and 1440 min) to determine the reactivation of the enzyme. Tazobactam kinetic profiles are included for comparison. EnzFitter™ (Biosoft) and Microsoft Excel were used to analyze the data.

The target in assay [10] is T3, SHV K234R (Klebsiella pneumoniae, UniProt P0AD64, K230R).
T3 construct: GST (N, cleaved yes); made in house; host or cells: Origami2 (DE3) E. coli
T3 sequence (P0AD64 22-286 K230R): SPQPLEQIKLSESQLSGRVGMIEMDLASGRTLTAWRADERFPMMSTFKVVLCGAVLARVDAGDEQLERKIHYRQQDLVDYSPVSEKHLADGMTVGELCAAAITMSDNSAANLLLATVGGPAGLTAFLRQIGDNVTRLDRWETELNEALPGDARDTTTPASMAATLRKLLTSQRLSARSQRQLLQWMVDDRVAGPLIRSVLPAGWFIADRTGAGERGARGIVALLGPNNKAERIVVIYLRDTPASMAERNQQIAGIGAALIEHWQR
Briefly: biochemical. Format: biochemical. Here is the method:
as §1

Assay [11] has as its target T3, SHV K234R. The assay is described as follows: Circular dichroism thermal denaturation. The settings on record: CD at 208 nm, apo-K234R 48.2°C. On the procedure: (§4) Circular dichroism (CD) was carried out on the SHV-1 and the SHV K234R proteins with and without SA2-13 and this is presented in Figure S1. In short, CD was performed on a JASCO J-815 spectrometer with a Peltier-effect temperature controller (GE Healthcare) as previously described. Quartz cells with a 0.1 cm pathlength were used for experiments (Hellma). Thermal denaturation was performed from 22–72°C with a heating rate of 2°C/min and raw data was corrected for the fraction of denatured protein (f u). The collected data at 208 nm was utilized to calculate a melting temperature (T m).
In general terms: Circular dichroism is the unequal absorption of left and right circularly polarised light.

Assay [12] concerns the target T1, SHV-1. The assay is described as follows: Circular dichroism thermal denaturation. Particulars: CD at 208 nm, apo-SHV-1 54.2°C. Here is the method: as §4
For assay [13], the target named is T1, SHV-1. Particulars: cited from earlier work.

T1 sequence (P0AD64 22-286): as the sequence (P0AD64 22-286) above

Turning to `CC1(C(=O)OCC(N)=O)C(C(=O)O)N2C(=O)CC2S1(=O)=O` (centres unmarked) [PSR-3-226], in assay [1], inhibition was half-maximal at 370 ± 30 nM (IC50). The Ki in [2] worked out at 2600 ± 300 nM; in assay [3] it was 1000 ± 100 nM. The “k inact/K I” value in assay [3] (SHV-1) was 0.06 ± 0.01 µM⁻¹ s⁻¹. In addition, in assay [4], the “t n 24h” value is recorded as over 1500. In addition, the “Disc Assay Zone E. coli ATCC 35218 (TEM-1)” value in [5] is given as 12 mm. Moreover, the “Disc Assay Zone E. coli DH10B PDC-3” value in assay [6] was found to be 12 mm. Also, in assay [6] (disc assay), the “microbial activity versus AmpC (PDC-3) expressed in E. coli DH10B” value is recorded as “had microbial activity”. Besides, in assay [7], the “Disc Assay Zone E. coli DH10B SHV-1” value came out at 6 mm. In assay [8], the “K m against KPC-2” value is 3.8 ± 0.4 µM.

In assay [1], `CC1(COC(=O)CCC(=O)O)C(C(=O)O)N2C(=O)CC2S1(=O)=O` (centres unmarked) [PSR-4-155] had an IC50 of 440 ± 40 nM. In [2], the Ki is 2700 ± 200 nM. The “Ki fold higher compared to PSR-4-157” value in [2] (SHV-1) was about 2 fold. Moreover, the Ki in [3] was 2100 ± 200 nM. In assay [3] (SHV-1), the “KI fold higher compared to PSR-4-157” value is about 2 fold, the “k inact/K I” value came to 0.05 ± 0.01 µM⁻¹ s⁻¹ and the “kinact/KI fold lower compared to PSR-4-157” value is 2 fold. In [9], the “k obs react 30 min” value is over 0.2 s⁻¹. For the same molecule, in [4], the “t n 24h” value was over 1500. Also, the “Disc Assay Zone E. coli ATCC 35218 (TEM-1)” value in assay [5] was 13 mm. Moreover, the “Disc Assay Zone E. coli DH10B PDC-3” value in assay [6] is reported as 6 mm. Also, the “Disc Assay Zone E. coli DH10B SHV-1” value in assay [7] worked out at 6 mm.

In turn, `CC1(COC(=O)CCCCC(=O)O)C(C(=O)O)N2C(=O)CC2S1(=O)=O` (centres unmarked) [PSR-4-157] gave a 50% inhibitory concentration (IC50) in assay [1] of 160 ± 10 nM. Moreover, the “fold higher IC50 compared to SA2-13” value in assay [1] (SHV-1) came to 2 fold. The Ki in assay [2] amounted to 1700 ± 100 nM; in assay [3], 1000 ± 200 nM. The “k inact/K I” value in assay [3] (SHV-1) was found to be 0.10 ± 0.02 µM⁻¹ s⁻¹. Also, the “t n 24h” value in assay [4] is given as over 1500. The “Disc Assay Zone E. coli ATCC 35218 (TEM-1)” value in [5] is given as 11 mm. In addition, the “Disc Assay Zone E. coli DH10B PDC-3” value in assay [6] was determined as 6 mm. For the same molecule, in assay [7], the “Disc Assay Zone E. coli DH10B SHV-1” value is listed as 6 mm.

With `C[C@]1(COC(=O)CCCC(=O)O)[C@H](C(=O)O)N2C(=O)C[C@H]2S1(=O)=O` [SA2-13], in [1], it took 81 ± 7 nM to reach half-maximal inhibition (IC50). Also, the figures for the Ki in [10], in assay [2] and in assay [3] were 2100 ± 200 nM, 1700 ± 100 nM and 190 ± 10 nM, respectively. The “fold increase of K i for K234R SHV relative to wt SHV-1” value in [10] (K234R vs wt SHV-1) worked out at 2 fold. The “k inact/K I” value in [3] (SHV-1) was determined as 0.37 ± 0.06 µM⁻¹ s⁻¹. For the same molecule, the “k obs react 30 min” value in assay [9] was 0.004 ± 0.001 s⁻¹. Besides, in [4], the “t n 24h” value was found to be 120. Further, the “Disc Assay Zone E. coli ATCC 35218 (TEM-1)” value in [5] turned out to be 14 mm. Also, the “Disc Assay Zone E. coli DH10B PDC-3” value in [6] is reported as 6 mm. The “Disc Assay Zone E. coli DH10B SHV-1” value in assay [7] is listed as 6 mm. The “melting temperature Tm of SHV K234R with inhibitor” value was “unaffected” in assay [11] and 48.7 °C in [11] (listed as MN-2-261). Moreover, the results for the “melting temperature Tm of SHV-1 with inhibitor” value in assay [12] and in assay [12] (listed as MN-2-261) were “unaffected” and 54.5 °C, respectively. Besides, the “k react fold decrease compared to tazobactam” value in assay [13] is on record as “about 10 fold”.

Consider `C[C@]1(Cn2ccnn2)[C@H](C(=O)O)N2C(=O)C[C@H]2S1(=O)=O` [tazobactam, reference compound], for which the “k obs react 30 min” value in assay [9] was determined as 0.040 ± 0.001 s⁻¹. The “t n 24h” value in assay [4] was determined as 5. Moreover, the “Disc Assay Zone E. coli ATCC 35218 (TEM-1)” value in [5] turned out to be 21 mm. Moreover, the “Disc Assay Zone E. coli DH10B PDC-3” value in [6] turned out to be 14 mm. Further, the “Disc Assay Zone E. coli DH10B SHV-1” value in assay [7] worked out at 6 mm. In assay [7] (DH10B E. coli, high SHV-1 expression), the “inhibition of SHV-1 expressing cells” value was “Inhibition was not observed”.

These data come from paper PMC3894197, “Penam Sulfones and β-Lactamase Inhibition: SA2-13 and the Importance of the C2 Side Chain Length and Composition” (PLoS ONE, 2014).
